From patent publication US8178505B2, “Method of predicting and reducing risk of metastasis of breast cancer to lung” (Sloan-Kettering Institute for Cancer Research, priority 2005, dated 2012)

Assays:
MMP-1, 3, 9, 10 and 11 = conditions: cited from earlier work
malignant cell lines = conditions: in culture; cited from earlier work
LM2 cells = experiment: Lung metastasis formation after tail vein injection of LM2 cells, pharmacological targeting, bioluminescence imaging; type: in vivo, Balb/c nude mice; conditions: preliminary results; drugs individually or in combination; FIGS. 2A and 2B
Experimental: Animal studies. All animal work was done in accordance with an IACUC approved protocol. Four to 6-week-old Balb/c nude mice (NCI) were used for all xenografting studies. For lung metastasis formation, 2×10^5 viable cells were washed and harvested in PBS and subsequently injected into the lateral tail vein in a volume of 0.1 mL. Endpoint assays were conducted at 15 weeks post-injection unless significant morbidity required that the mouse be sacrificed earlier. […] Mice were imaged for luciferase activity immediately after injection to exclude any that were not successfully xenografted.
Bioluminescent imaging and analysis. Mice were anesthetized and retro-orbitally injected with 1.5 mg of D-luciferin (15 mg/mL in PBS). Imaging was completed between 2-5 minutes post-injection using a Xenogen IVIS system coupled to Living Image acquisition and analysis software (Xenogen). For BLI plots, photon flux was calculated for each mouse using a rectangular region of interest (ROI) encompassing the thorax of the mouse in a prone position.

Row | SMILES | production of MMP-1, 3, 9, 10 and 11 (MMP-1, 3, 9, 10 and 11; by inhibiting PKC) | direct effect on activity of MMPs (MMP-1, 3, 9, 10 and 11) | differentiation and growth of malignant cell lines (malignant cell lines) | preventing lung metastasis (LM2 cells)
1 | CCC/C=C/C=C/C(=O)O[C@H]1/C(=C/C(=O)OC)C[C@H]2C[C@H]([C@@H](C)O)OC(=O)C[C@H](O)C[C@@H]3C[C@H](OC(C)=O)C(C)(C)[C@](O)(C[C@@H]4C/C(=C/C(=O)OC)C[C@H](/C=C/C(C)(C)[C@]1(O)O2)O4)O3 [bryostatin-1] | can inhibit the production of MMP-1, 3, 9, 10 and 11 | does not directly affect the activity of MMPs | induce differentiation and halt the growth of several malignant cell lines | 
2 | CNC(=O)[C@H](Cc1c[nH]c2ccccc12)NC(=O)[C@@H](CC(=O)NO)CC(C)C [GM-6001, Ilomastat] |  |  |  | findings similar to those obtained using genetic knockdowns
